Measured values published in article PMC7876106 (Scientific Reports, 2021).
Blank lines part the entries; values can stand above or below the compound they belong to.

Key:
TERRA in LOX cells = test: TERRA levels by RNA dot blot and Northern blot in LOX cells; assay type: cell-based, human
EBNA1 G4 RNA = test: FP assay, compound binding to EBNA1 G4 RNA
Protocol: (§1) All the nucleic acids, peptides and chemicals were dissolved in buffer containing 20 mM HEPES pH7.5, 150 mM salt (KCl, NaCl, LiCl) at the stock concentration of 1 mM. For peptide and nucleic acid interactions, 25μL of each nucleic acids with a sequential twofold dilutions starting from 50 μM was added into each well of 96-well plate followed by adding 25μL of 10 nM FITC labeled TRF2 peptide. For compounds and nucleic acid interactions, 20μL of each compounds with a sequential twofold dilutions starting from 50 μM were added into each well of 96-well plate followed by adding 5μL of 20 ng/mL tRNA and 25μL of 10 nM FAM labeled nucleic acids. For inhibition assay, 5μL FITC labeled TRF2 GAR peptide (10 nM final concentration) and 10 μL oligos (5 μM final concentration) were mixed, followed by adding 5μL of each compound with a sequential twofold dilutions starting from 50 μM into each well of 384-well plate. All components were mixed thoroughly, and the plate was incubated at room temperature for 1 h before placing in an Envision Plate Reader for reading at 495/520 nm. All data curves were fitted using Prism 8.0.

[1] = test system: TeloDNA (5'-fluorescein) (DNA, G4) TTAGGGTTAGGGTTAGGGTTAGGG; test: fluorescence polarization; settings: 20 mM HEPES pH 7.5, room temperature; for binding: 150 mM salt (KCl, NaCl or LiCl; which not stated), tRNA competitor, dilutions from 50 μM compound
TERRA [2] = test: FP assay, compound binding to 5′ fluorescein-labeled TERRA
Protocol: as §1

[3] = test system: telomere repeat DNA in LOX cells; test: Telomere length analysis (PFGE, Southern blot) of LOX cells; assay type: cell-based, human; settings: TLA
Protocol: Genomic DNA was isolated from cells using a genomic DNA purification kit (Promega) and digested with AluI and MboI. Digested genomic DNA was purified by phenol/choloroform extraction and quantified using a Qubit 4 Fluorometer (Thermal Scientific). Equal amounts of digested DNA (5 μg) were separated by pulse-field gel electrophoresis (PFGE) performed with a 1% agarose gel at 6V/cm, switch times from 1 to 12s, 15 °C for 12h using CHEF-DRIII system (Bio-Rad). The DNA was transferred to GeneScreen Plus blotting membranes (Perkin-Elmer) and analyzed by Southern blot. The blots were hybridized with a 32P-labeled telomere repeat or […]
Alu probe at 42 °C overnight, then washed twice for 5 min each with 0.2 M wash buffer (0.2 M Na2HPO4 pH 7.2, 1 mM EDTA, and 2% SDS) at room temperature and once for 10 min with 0.1 M wash buffer at 42°C. Relative telomere-repeat signals were determined by Typhoon 9410 Imager and ImageQuant TL software (GE Healthcare). Signal intensity represents the percentage decrease of average telomere signals relative to dox (-) or PP control. […]
(§2) 100, 1 mM EDTA in 1x PBS) before immuno-staining. Primary antibodies were prepared in blocking solution at following dilutions: anti-53BP1 (1:500, IHC-00001; Bethyl Laboratories) and γH2AX (1:2,000, A300-081A; Bethyl Laboratories). After IF, cells were fixed in 4% paraformaldehyde in 1x PBS for 10 min, washed in 1x PBS, dehydrated in ethanol series (70%, 95%, 100%), and air-dried. Coverslips were denatured for 5 min at 80-85° C in hybridization mix [70% formamide, 10 mM Tris-HCl, pH 7.2, and 0.5% blocking solution (Roche)] containing telomeric PNA-Cy3-(CCCTAA)3 probe, and hybridization was continued for 2 hrs at room temperature in the dark moisturized chambers. Coverslips were washed twice for 15 min each with 70% formamide, 10 mM Tris-HCl (pH 7.2), and 0.1% BSA, and followed by three washes for 5 min each with 0.15 M NaCl, 0.1 M Tris-HCl (pH 7.2), and 0.08% Tween-20. Nuclei were counterstained with 0.1 µg/ml DAPI in blocking solution and coverslips mounted with VectorShield (Vector Laboratories). RNA FISH was performed as previously described 1.
Images were captured with a 100x lens on a Nikon E600 Upright microscope (Nikon

[4] = test system: TERRA (5'-fluorescein) (RNA, G4) UUAGGGUUAGGGUUAGGGUUAGGG; test: fluorescence polarization; settings: 20 mM HEPES pH 7.5, room temperature; for binding: 150 mM salt (KCl, NaCl or LiCl; which not stated), tRNA competitor, dilutions from 50 μM compound
G4 TeloDNA = test: FP assay, compound binding to 5′ fluorescein-labeled TeloDNA
Protocol: as §1

[5] = test system: TeloDNA (unlabelled) (DNA, G4) TTAGGGTTAGGGTTAGGGTTAGGG; test: fluorescence polarization, displacement of TRF2 GAR peptide; settings: 150 mM salt (KCl, NaCl or LiCl; which not stated); 20 mM HEPES pH 7.5, room temperature; FITC-TRF2 GAR peptide 10 nM; 5 μM oligo; dilutions from 50 μM compound
TeloDNA and TRF2 complex = test: FP inhibition assay, TRF2 GAR binding to TeloDNA
Protocol: as §1

[6] = test system: TERRA antisense (5'-fluorescein) (RNA, single strand) CCCUAACCCUAACCCUAACCCUAA; test: fluorescence polarization; settings: 150 mM salt (KCl, NaCl or LiCl; which not stated); 20 mM HEPES pH 7.5, room temperature, tRNA competitor; dilutions from 50 μM compound
TERRA [7] = test: CD spectroscopy of TERRA mixed with compound; settings: 1:1 molar ratio, 150 mM KCl buffer
Protocol: All nucleic acids were dissolved in buffer containing 20 mM HEPES pH7.5, 150 mM salt (KCl or LiCl), 20% PEG8000 at the concentration of 10 μM for experiments. A J-815 spectrometer equipped with a PFD-425S Peltier cell holder was used to measure CD spectra at 4 °C between 200 and 340 nm to determine the secondary structure content of various oligo constructs. The molar ellipticity was calculated and the plot was made using Excel.

LOX cells = test: TIF assay (IF FISH, γH2AX or 53BP1 with telomere DNA) in LOX cells; assay type: cell-based, human; settings: 2 μM, 3 days
Protocol: Mei et al, 2020 TERRA Requires TRF2 GAR Domain […]
as §2, with “Indirect immunofluorescence (IF) combined with fluorescence in situ hybridization (FISH) analysis for telomere dysfunction was performed as described 4 with some modifications. Briefly, cells grown on coverslips were fixed for 15 min in 2% paraformaldehyde/1x PBS at RT, followed by permeabilization for 10 min in 1x PBS/0.5% Triton X-100 at RT. After washing with 1x PBS, cells were incubated for 60 min in blocking solution (0.5% BSA, 0.2% fish gelatin, 0.1% Triton X-100,” for “100,”
Images were captured with a 100x lens on a Nikon E600 Upright microscope (Nikon […]
Instruments, Inc., Melville, NY) with ImagePro Plus software (Media Cybernetics, Silver Spring, MD) for image processing. Cells with > 5 53BP1/γH2AX foci co-localizing with telomere DNA foci were scored as positive for TIF. The quantification was generated from at least three independent Immuno-FISH experiments. […]
0.1 μg/mL DAPI in 1x PBS and slides were mounted with VectorShield (Vector Laboratories).
Images were taken with a 100x lens on a Nikon E600 Upright microscope (Nikon Instruments) using ImagePro Plus software (Media Cybernetics) for image processing. Statistical analysis was performed using two-tailed Student t Test.

[8] = test system: TeloDNA antisense (5'-fluorescein) (DNA, single strand) CCCTAACCCTAACCCTAACCCTAA; test: fluorescence polarization; settings: 150 mM salt (KCl, NaCl or LiCl; which not stated); 20 mM HEPES pH 7.5, room temperature, tRNA competitor; dilutions from 50 μM compound
TERRA and TRF2 complex = test: FP inhibition assay, TRF2 GAR binding to TERRA; settings: FP
Protocol: as §1

[9] = test system: TRF2 binding to telomere DNA; test: DNA ChIP assay of TRF2 binding to telomere DNA in LOX cells; assay type: cell-based, human; settings: 2 μM, 2 days
Protocol: The lysates were sonicated, cleared by centrifugation, and supernatants were diluted 10 fold into IP Buffer (0.01% SDS, 1.1% Triton X-100, 1.2mM EDTA, 16.7mM Tris pH 8.1, 167mM NaCl, protease inhibitors cocktail, 50U/ml SUPERase•in) for IP reaction with rabbit IgG (Santa Cruz Biotechnology) or rabbit polyclonal anti-TRF2 (Pocono Rabbit Farm) at 4 ° C overnight. Each immune complex was collected by Dynal A beads (Invitrogen), washed five times (1 ml wash, 10 mins each) in ChIP related wash buffer at 4 ° C, eluted by addition of 200µl Elution buffer (10mM Tris, pH 8.0, 5mM EDTA, 1% SDS, 50U/ml SUPERase.In) at 70 °C for 20 mins, and the elutes were placed at 70 °C for 2 hrs to reverse cross-linking. […]
DNA ChIP assays was performed as described previously 3 with minor modifications. Briefly, 1 x 10^7 LOX cells treated with indicated chemicals (2 µM) for 48 hrs were subject to ChIP analysis and immunoprecipitated DNA was assayed by DNA dot-blot using 32P-labeled (TTAGGG)4 or Alu probe. […]

[10] = test system: TERRA (unlabelled) (RNA, G4) UUAGGGUUAGGGUUAGGGUUAGGG; test: fluorescence polarization, displacement of TRF2 GAR peptide; settings: 150 mM salt (KCl, NaCl or LiCl; which not stated); 20 mM HEPES pH 7.5, room temperature; FITC-TRF2 GAR peptide 10 nM; 5 μM oligo; dilutions from 50 μM compound
TeloDNA = test: FP assay, FITC labeled TRF2 peptide with TeloDNA; assay type: binding; settings: 10 nM FITC peptide
Protocol: as §1

TERRA [11] = test: FP assay, FITC labeled TRF2 peptide with TERRA; assay type: binding; settings: 10 nM FITC peptide
Protocol: as §1

antisense TeloDNA = test: FP assay, FITC labeled TRF2 peptide with antisense TeloDNA; assay type: binding; settings: 10 nM FITC peptide
Protocol: as §1

antisense TERRA = test: FP assay, FITC labeled TRF2 peptide with antisense TERRA; assay type: binding; settings: 10 nM FITC peptide
Protocol: as §1

[12] = 150 mM KCl, NaCl or LiCl (salt not specified), 20 mM HEPES, tRNA competitor added, 10 nM probe, apparent
[13] = 10 nM fluorescein-labeled probe, 3 independent experiments

Compound: C[C@H]1c2cccc(O)c2C(=O)C2=C(O)[C@]3(O)C(=O)C(C(N)=O)=C(O)[C@@H](N(C)C)[C@@H]3[C@@H](O)[C@@H]21 [Dox, doxycycline]
effect of Dox treatment on TERRA (TERRA in LOX cells; doxycycline 1 µg/ml, 2 days, RNA dot blot): no effect on TERRA

Compound: C=CC1=C(C)c2cc3[nH]c(cc4nc(cc5[nH]c(cc1n2)c(C)c5CCC(=O)O)C(CCC(=O)O)=C4C)c(C)c3C=C [PP, protoporphyrin IX]
binding to EBNA1 G4 RNA (EBNA1 G4 RNA): did not display any binding | binding [5]: no | IC50 for TRF2 GAR-TeloDNA (TeloDNA and TRF2 complex): no measurable IC50 | binding [6]: no | accumulation of TERRA as a shorter form (TERRA in LOX cells; 2 μM, 3 days, Northern blot): not observed | alteration of CD spectrum of TERRA at major peak (~260 nm) (TERRA [7]): not BRACO-19 or PP altered the CD spectrum | binding [1]: no | binding to TERRA (TERRA [2]): no measurable affinity | level of γH2AX or 53BP1 associated telomere dysfunction-induced foci (TIFs) (LOX cells): equivalent to background | binding [8]: no | IC50 for TRF2 GAR-TERRA (TERRA and TRF2 complex): no measurable IC50 | effect on TRF2 binding to telomere DNA [9]: Neither NMM, PP, nor BRACO-19 had any significant effect | binding [10]: no | binding [4]: no | binding activity for G4 TeloDNA (G4 TeloDNA): no binding activity

Compound: AAAGAAASASSGAAAAGAHEPGLGGPAEAGAGEAA [Ala mutant, control peptide with each of the 10 arginine residues mutated to alanine]
peptide binding to TeloDNA (TeloDNA): no detectable binding | peptide binding to TERRA (TERRA [11]): no detectable binding | peptide binding to antisense TeloDNA (antisense TeloDNA): Neither TRF2 GAR nor the Ala mutant showed any detectable binding | peptide binding to antisense TERRA (antisense TERRA): Neither TRF2 GAR nor the Ala mutant showed any detectable binding

Now from value to compound, other results behind:

EC50 (EBNA1 G4 RNA): 199 nM | binding to EBNA1 G4 RNA (EBNA1 G4 RNA): high binding affinity | EC50 [1, 12]: 50 nM | EC50 (TERRA [2]; [13]): 660 nM | EC50 [4, 12]: 660 nM | EC50 (G4 TeloDNA; [13]): 50 nM
Compound: NCCOc1cc(C(=O)Nc2cc(OCCN)c3ccccc3n2)nc(C(=O)Nc2cc(OCCN)c3ccccc3n2)c1 [PDS, pyridostatin]
total TERRA levels relative to PP control (TERRA in LOX cells; 2 μM, 3 days, RNA dot blot and Northern blot): also reduced TERRA levels | telomere repeat DNA signals [3]: to a lesser extent

binding [1]: no | binding to TERRA (TERRA [2]): only PDS bound | binding [4]: no | binding activity for G4 TeloDNA (G4 TeloDNA): only PDS bound
Compound: C[n+]1cc(NC(=O)c2ccc3ccc4ccc(C(=O)Nc5cc6ccccc6[n+](C)c5)nc4c3n2)cc2ccccc21 [Phen-DC3]

binding [1]: no | binding to TERRA (TERRA [2]): only PDS bound | binding [4]: no | binding activity for G4 TeloDNA (G4 TeloDNA): only PDS bound
Compound: COS(=O)(=O)[O-].Cc1cc2c3c([n+](C)c4ccc(F)cc4c3c1)-c1cc(F)ccc1N2C [RHPS4, acridinium methosulfate]
